Measured values from ChEMBL document CHEMBL1201862, “PubChem BioAssay data set” (2004).
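Growth conditions: 96-well plates. Treatment: test compound, 48 hours, 5 concentrations. Analysis: linear interpolation between bracketing concentrations; unreached endpoints set to highest concentration. At the GI50, growth is halved.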 Activity calls are given as the source filed them. No stated cut-off is given here; in the data, active = GI50 up to about 1.1 µM and inactive = higher.

How the values were obtained:
Experiment in all cases: inhibition of tumour cell growth, NCI panel, 48 h
CAKI-1 = test system: CAKI-1
CCRF-CEM = test system: CCRF-CEM
DU-145 = test system: DU-145
HL-60 = test system: HL-60
KM12 = test system: KM12
MDA-MB-231 = test system: MDA-MB-231
MOLT-4 = test system: MOLT-4
NCI-H226 = test system: NCI-H226
NCI-H460 = test system: NCI-H460
OVCAR-3 = test system: OVCAR-3
PC-3 = test system: PC-3
RPMI-8226 = test system: RPMI-8226
SF-268 = test system: SF-268
SK-MEL-28 = test system: SK-MEL-28
SK-MEL-2 = test system: SK-MEL-2
SK-MEL-5 = test system: SK-MEL-5
SW-620 = test system: SW-620
TK-10 = test system: TK-10
U-251 = test system: U-251
UO-31 = test system: UO-31

CCCCCCCCCCCCc1ccsc1-c1ccc(-c2ccc(-c3sc(-c4cc(CCCCCCCCCCCC)c(-c5ccc(-c6ccc(-c7sccc7CCCCCCCCCCCC)s6)s5)s4)cc3CCCCCCCCCCCC)s2)s1
GI50 (CAKI-1): > 100 µM (inactive) | GI50 (CCRF-CEM): 38.3 µM (inactive) | GI50 (DU-145): > 100 µM (inactive) | GI50 (HL-60): 19.3 µM (inactive) | GI50 (KM12): > 100 µM (inactive) | GI50 (MDA-MB-231): > 100 µM (inactive) | GI50 (MOLT-4): > 100 µM (inactive) | GI50 (NCI-H226): > 100 µM (inactive) | GI50 (NCI-H460): > 100 µM (inactive) | GI50 (OVCAR-3): > 100 µM (inactive) | GI50 (PC-3): > 100 µM (inactive) | GI50 (RPMI-8226): > 100 µM (inactive) | GI50 (SF-268): > 100 µM (inactive) | GI50 (SK-MEL-28): > 100 µM (inactive) | GI50 (SK-MEL-2): > 100 µM (inactive) | GI50 (SK-MEL-5): > 100 µM (inactive) | GI50 (SW-620): > 100 µM (inactive) | GI50 (TK-10): > 100 µM (inactive) | GI50 (U-251): > 100 µM (inactive) | GI50 (UO-31): > 100 µM (inactive)

Nc1ccccc1N/C(=C\C(=O)C(Cl)(Cl)Cl)c1ccccc1
GI50 (CAKI-1): 34.5 µM (inactive) | GI50 (CCRF-CEM): 30.2 µM (inactive) | GI50 (DU-145): 38.8 µM (inactive) | GI50 (HL-60): 20.5 µM (inactive) | GI50 (KM12): 33.6 µM (inactive) | GI50 (MDA-MB-231): 15.2 µM (inactive) | GI50 (MOLT-4): 23.3 µM (inactive) | GI50 (NCI-H226): 24.2 µM (inactive) | GI50 (NCI-H460): 25.9 µM (inactive) | GI50 (OVCAR-3): 22.5 µM (inactive) | GI50 (PC-3): 22.5 µM (inactive) | GI50 (RPMI-8226): 23.1 µM (inactive) | GI50 (SF-268): 24.3 µM (inactive) | GI50 (SK-MEL-28): 35.5 µM (inactive) | GI50 (SK-MEL-2): 14.1 µM (inactive) | GI50 (SK-MEL-5): 15 µM (inactive) | GI50 (SW-620): 28.8 µM (inactive) | GI50 (TK-10): 65 µM (inactive) | GI50 (U-251): 16.8 µM (inactive) | GI50 (UO-31): 17.2 µM (inactive)

CCSc1nnc(Sc2c3ccccc3nc3ccccc23)s1
GI50 (CAKI-1): 5.33 µM (inactive) | GI50 (CCRF-CEM): 2.64 µM (inactive) | GI50 (DU-145): 15.2 µM (inactive) | GI50 (HL-60): 0.692 µM (active) | GI50 (KM12): 24.8 µM (inactive) | GI50 (MDA-MB-231): 18.8 µM (inactive) | GI50 (MOLT-4): 2.63 µM (inactive) | GI50 (NCI-H226): 33.7 µM (inactive) | GI50 (NCI-H460): 19.6 µM (inactive) | GI50 (OVCAR-3): 13.1 µM (inactive) | GI50 (PC-3): 20.3 µM (inactive) | GI50 (RPMI-8226): 3.91 µM (inactive) | GI50 (SF-268): 19.3 µM (inactive) | GI50 (SK-MEL-28): 17.5 µM (inactive) | GI50 (SK-MEL-2): 22.3 µM (inactive) | GI50 (SK-MEL-5): 15.6 µM (inactive) | GI50 (SW-620): 5.45 µM (inactive) | GI50 (TK-10): 6.18 µM (inactive) | GI50 (U-251): 23.3 µM (inactive) | GI50 (UO-31): 10.7 µM (inactive)
